assay: Henry solubility constant Hcp at 298.15 K (mol/(m3 Pa)); conditions: reference: Albanese et al. (1987)

| SMILES | Henry solubility constant Hcp |
| --- | --- |
| ClCC(Cl)CCl [1,2,3-trichloropropane] | 0.033 |
| CC(Br)CBr (stereo not given) [1,2-dibromopropane] | 0.0053 |
| CC(Cl)CCl (stereo not given) [1,2-dichloropropane] | 0.0049 |
| ClCCCCl [1,3-dichloropropane] | 0.0085 |
| ClCCCCCl [1,4-dichlorobutane] | 0.012 |
| C=C(Cl)CCl [2,3-dichloropropene] | 0.0035 |
| ClC/C=C/CCl [(E)-1,4-dichloro-2-butene] | 0.017 |
| ClC/C=C\CCl [(Z)-1,4-dichloro-2-butene] | 0.01 |
| Cl/C=C\CCl [cis-1,3-dichloropropene] | 0.0042 |
| Cl/C=C/CCl [trans-1,3-dichloropropene] | 0.0056 |

Source: Sander's compilation of Henry's law constants (doi:10.1080/09593338709384529)
